In EP1228063B1, “SUBSTITUTED PYRIDINES AND PYRIDAZINES WITH ANGIOGENESIS INHIBITING ACTIVITY” (BAYER CORPORATION, priority 1999, dated 2001):

How the values were obtained:
[1] = molecular target: T1, NIH3T3 cells expressing the full length KDR receptor (Homo sapiens, UniProt P35968); assay: Cell mechanistic assay - Inhibition of 3T3 KDR phosphorylation; format: cell-based; settings: VEGF (30 ng / ml) stimulated KDR phosphorylation in NIH3T3 cells, 30 minutes preincubation
T1 construct: NIH3T3 cells expressing the full length KDR receptor; expressed in transfected cells; host or cells: NIH3T3 cells (G418 selection)
T1 sequence (P35968 20-1356): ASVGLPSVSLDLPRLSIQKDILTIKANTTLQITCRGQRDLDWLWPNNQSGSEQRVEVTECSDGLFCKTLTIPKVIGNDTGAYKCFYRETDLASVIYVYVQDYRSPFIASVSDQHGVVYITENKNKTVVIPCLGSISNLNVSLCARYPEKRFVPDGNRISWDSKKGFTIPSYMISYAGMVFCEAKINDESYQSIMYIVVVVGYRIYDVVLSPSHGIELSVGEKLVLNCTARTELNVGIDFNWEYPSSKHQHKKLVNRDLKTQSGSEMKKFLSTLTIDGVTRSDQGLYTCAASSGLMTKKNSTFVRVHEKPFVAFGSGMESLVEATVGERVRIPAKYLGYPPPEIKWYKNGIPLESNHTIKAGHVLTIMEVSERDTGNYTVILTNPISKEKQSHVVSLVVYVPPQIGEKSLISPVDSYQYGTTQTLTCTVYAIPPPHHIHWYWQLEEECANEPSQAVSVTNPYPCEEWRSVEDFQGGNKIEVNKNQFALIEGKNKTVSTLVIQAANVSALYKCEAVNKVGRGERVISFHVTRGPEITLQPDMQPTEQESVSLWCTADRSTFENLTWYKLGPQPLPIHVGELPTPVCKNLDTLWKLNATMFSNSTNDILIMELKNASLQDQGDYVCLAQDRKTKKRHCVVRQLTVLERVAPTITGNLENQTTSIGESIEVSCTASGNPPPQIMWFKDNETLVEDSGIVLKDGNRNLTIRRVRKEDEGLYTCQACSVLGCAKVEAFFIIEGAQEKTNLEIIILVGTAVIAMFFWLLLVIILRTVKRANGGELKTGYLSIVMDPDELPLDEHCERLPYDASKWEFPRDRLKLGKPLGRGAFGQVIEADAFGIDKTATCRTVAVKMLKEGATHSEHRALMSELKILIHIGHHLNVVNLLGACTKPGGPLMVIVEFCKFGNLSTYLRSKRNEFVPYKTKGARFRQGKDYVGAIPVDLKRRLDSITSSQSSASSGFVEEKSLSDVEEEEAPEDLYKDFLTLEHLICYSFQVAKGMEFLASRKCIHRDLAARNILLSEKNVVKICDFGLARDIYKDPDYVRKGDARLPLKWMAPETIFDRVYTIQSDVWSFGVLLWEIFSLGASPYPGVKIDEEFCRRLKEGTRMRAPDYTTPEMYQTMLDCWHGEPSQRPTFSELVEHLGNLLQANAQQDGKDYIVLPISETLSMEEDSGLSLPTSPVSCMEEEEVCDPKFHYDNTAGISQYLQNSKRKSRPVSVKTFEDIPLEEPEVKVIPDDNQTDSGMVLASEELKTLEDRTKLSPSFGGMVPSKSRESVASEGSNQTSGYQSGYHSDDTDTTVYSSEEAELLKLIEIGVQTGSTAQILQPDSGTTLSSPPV
Experimental: NIH3T3 cells expressing the full length KDR receptor were grown in DMEM (Life Technologies, Inc., Grand Island, NY) supplemented with 10% newborn calf serum, low glucose, 25 mM /L sodium pyruvate, pyridoxine hydrochloride and 0.2 mg/ ml of G418 (Life Technologies Inc., Grand Island, NY). The cells were maintained in collagen I-coated T75 flasks (Becton Dickinson Labware, Bedford, MA) in a humidified 5% CO2 atmosphere at 37°C.
Fifteen thousand cells were plated into each well of a collagen 1-coated 96-well plate in the DMEM growth medium. Six hours later, the cells were washed and the medium was replaced with DMEM without serum. After overnight culture to quiesce the cells, the medium was replaced by Dulbecco's phosphate-buffered saline (Life Technologies Inc., Grand Island, NY) with 0.1 % bovine albumin (Sigma Chemical Co., St Louis, MO). After adding various concentrations (0-300 nM) of test compounds to the cells in 1% final concentration of DMSO, the cells were incubated at room temperature for 30 minutes. The cells were then treated with VEGF (30 ng / ml) for 10 minutes at room temperature. Following VEGF stimulation, the buffer was removed and the cells were lysed by addition of 150 µl of extraction buffer (50 mM Tris, pH 7.8, supplemented with 10% glycerol, 50 mM BGP, 2 mM EDTA, 10 mM NaF, 0.5 mM NaVO4, and 0.3% TX-100) at 4°C for 30 minutes.
To assess receptor phosphorylation, 100 microliters of each cell lysate was added to the wells of an ELISA plate precoated with 300 ng of antibody C20 (Santa Cruz Biotechnology, Inc., Santa Cruz , CA). Following a 60-minute incubation, the plate was washed and bound KDR was probed for phosphotyrosine using an anti-phosphotyrosine mAb clone 4G10 (Upstate Biotechnology, Lake Placid, NY). The plate was washed and wells were incubated with anti-mouse IgG/HRP conjugate (Amersham International plc, Buckinghamshire, England) for 60 minutes. Wells were washed and phosphotyrosine was quantitated by addition of 100 µl per well of 3,3',5,5' tetramethylbenzidine (Kirkegaard and Perry, TMB Microwell 1 Component peroxidase substrate) solution. Color development was arrested by the addition of 100 µl 1% HCl based stop solution (Kirkegaard and Perry, TMB 1 Component Stop Solution).
Optical densities (OD) were determined spectrophotometrically at 450 nm in a 96-well plate reader (SpectraMax 250, Molecular Devices). Background (no VEGF added) OD values were subtracted from all ODs and percent inhibition was calculated according to the equation: % Inhibition = ((OD(VEGF control)-OD(with test compound)) × 100)/(OD(VEGF control)-OD(no VEGF added)) [formula]
IC50s were determined on some of the exemplary materials with a least squares analysis program using compound concentration versus percent inhibition. Compounds that have IC50 ≤ 20 nM in this assay include those of Examples 2, 6, 10, 11, 14, 23, 96, 101, 102, 103, 104, 105. Compounds that have IC50 values between 20 nM and 50 nM include those of examples 1, 4, 8, 9, 12, 13, 17, 24, 93, 98. Compounds that have IC50 values between 50 nM and 400 nM include those of examples 97, 99, and 100.

[2] = test system: SK-MEL2 human tumor cells that were transfected with a plasmid containing the murine VEGF gene; assay: Matrigel Angiogenesis Model (hemoglobin content of Matrigel pellets); format: in vivo, Mice; settings: vs. vehicle control animals, 12 days post-implantation
Experimental: Preparation of Matrigel Plugs and in vivo Phase: Matrigel® (Collaborative Biomedical Products, Bedford, MA) is a basement membrane extract from a murine tumor composed primarily of laminin, collagen IV and heparan sulfate proteoglycan. It is provided as a sterile liquid at 4° C, but rapidly forms a solid gel at 37° C.
Liquid Matrigel at 4° C was mixed with SK-MEL2 human tumor cells that were transfected with a plasmid containing the murine VEGF gene with a selectable marker. Tumor cells were grown in vitro under selection and cells were mixed with cold liquid Matrigel at a ratio of 2 X 10^6 per 0.5 ml. […]
Optical densities were determined spectrophotometrically at 600 nm in a 96-well plate reader, SpectraMax 250 Microplate Spectrophotometer System (Molecular Devices, Sunnyvale, CA). Background Lysis Buffer readings were subtracted from all wells.
Total sample hemoglobin content was calculated according to the following equation: Total Hemoglobin = (Sample Lysate Volume) × (Hemoglobin Concentration) [formula]
The average Total Hemoglobin of Matrigel samples without cells was subtracted from each Total Hemoglobin Matrigel sample with cells. Percent inhibition was calculated according to the following equation: % Inhibition = ((Average Total Hemoglobin Drug-Treated Tumor Lysates) × 100)/((Average Total Hemoglobin Non-Treated Tumor Lysates)) [formula] […]

IC50 [1]: 0.02 to 0.05 µM
Structure (SMILES): Clc1ccc(Nc2nnc(OCc3ccncc3)c3sccc23)cc1 [Example 8, 4-(4-chlorophenylamino)-7-(4-pyridylmethoxy)thieno-[2,3-d]pyridazine]
inhibition of total hemoglobin content of the Matrigel samples ([2]; 100 mg/kg po sid): > 60%
inhibition of total hemoglobin content of the Matrigel samples ([2]; 300 mg/kg po sid): > 60%
